The values below come from patent publication US9751932B2, “Anti-big-endothelin-1 (big-ET-1) antibodies and uses thereof” (Regeneron Pharmaceuticals, Inc., priority 2012, dated 2017).

“Also recorded” adds a separate entry of the source.

Common to all, as to format: in vivo, mouse
In assay [1] the test system is bleomycin-induced pulmonary fibrosis in C57BL/6 male mice. The protocol:
Bleomycin-induced lung injury was used to model pulmonary fibrosis in 10-week-old C57BL/6 male mice. Bleomycin sulfate was administered via a single oropharyngeal dose (3.2 U/kg (2.0 mg/kg) in a 2.0 ml/kg volume). Untreated control mice received a transoral instillation of sterile 0.9% saline (2.0 ml/kg). Bosentan, an orally active non-selective antagonist of endothelin receptor-A and -B, was used as a positive control for treatment, while vehicle and an irrelevant isotype matched antibody served as negative controls. Mice were allocated to treatment or control groups with dosing regimens as outlined in Table 11.
Each cage was randomly assigned to a therapeutic treatment group so all mice in the cage received the same treatment. Initial average body weight for each treatment group was similar. Daily body weights were recorded throughout the study. Group body weight average and percent change were analyzed and graphed.
Administration of bleomycin or saline was performed while animals were under anesthesia (isoflurane at a 3.5% to 2-liters/min oxygen flow rate). Sedated mice were placed on a 60-degree tilt board, head up with an elastic band around the incisors. A small cotton tip was used to roll tongue out of the mouth then forceps were used to hold tongue and to open the jaw. During a heavy inhalation, fluid was pipetted into the mouth. Tongue and jaw positions were maintained while mouse remained on the tilt board. Approximately 20 seconds elapsed after pipetting for fluid to disappear and “wheezing” to stop. After treatment instillation, mice were group-housed by treatment conditions (5 animals per cage) in disposable cages for 7 days because of excreted biohazard and then returned to home cages. Disposable cages differed from home cages only by use of a cage top bottle for water instead of use of Thoren rack watering system. All mice were housed in colony on 12 hr (7 am-7 pm) light-dark cycle.
Bosentan was administered by oral gavage twice daily (9:30 am and 6:30 pm) during the week. The initial pretreatment dose and weekend day doses were administered as a single combined BID. As outlined in Table 11, Bosentan dosing continued daily through day 20 of study while antibodies and vehicle were subcutaneously dosed every 3 days through day 18.
Pulmonary function was gauged by measuring arterial oxygen saturation using the Starr Life Sciences, MouseOx small animal vital signs monitor. Measurements were taken around the neck region following hair removal on Days 14 and 17. The MouseOx can monitor the cardio-pulmonary health and degree of lung injury by measuring the level of oxygen carried to the tissues on hemoglobin molecules in red blood cells. A throat collar sensor was used to measure arterial oxygen saturation via the carotid artery in conscious mice. Mice were lightly restrained by hand to confine subject to the cage top food hopper and to reduce movement. […] Once a continuous 15 second block is recorded, the software calculates the average of the above parameters. […] An average arterial oxygen saturation for each treatment group was calculated and analyzed using one-way ANOVA with Bonferroni post-test comparisons of all treatment groups.
On Day 21, mice were administered a terminal dose of Ketamine/Xylazine (120 mg/kg/5 mg/kg IP, respectively). […] Wet and dry lung weights and wet wt. to dry wt. ratios were calculated for each treatment group. […]

The test system is the same in assay [2]. Conditions: 20 days post bleomycin; vs vehicle or isotype control.
Assay [3] concerns hypoxia-induced pulmonary hypertension in C57BL/6 male mice. In words: Treatment of hypoxia-induced pulmonary hypertension (dosing from Day 14 of hypoxia). Conditions: dosing Days 14-21 of hypoxia; for Pulmonary Artery Cross-Sectional Area (PA CSA) / Right Ventricular Free Wall (RVFW) Thickening: 21st day; for Pulmonary Artery Cross-Sectional Area (PA CSA): FIG. 6; for Right Ventricular Free Wall (RVFW) Thickening: FIG. 7. Here is the method:
In this Example, the ability of anti-big-ET-1 antibody […] to treat hypoxia-induced pulmonary hypertension in mouse was evaluated. Experimental group animals were subjected to hypoxic conditions for 21 days (Day 1-21) and dosed with […], Bosentan, or control isotype antibody starting on Day 14. At Day 21, animals were evaluated using ultrasound images and measurements of ventricular pressures and cardiac hypertrophy (see Evaluation Materials and Methods in Example 7) and compared to control animals (maintained under normoxic conditions, hypoxia for 14 days, or hypoxia for 14 days followed by normoxia for 7 days). […] C57BL/6 male mice (10-11 weeks old) were weighed and treated or treated and dosed over a course of 21 days as outlined in Table 10. Bosentan was administered orally (PO); anti-big-ET-1 antibody […] and isotype control antibody were administered subcutaneously (SC). Body weights were consistent between groups over the course of this study. Bosentan, an orally active non-selective antagonist of endothelin receptor-A and -B, was used as a positive control while an irrelevant isotype-matched antibody served as the negative control. All procedures were approved by the Regeneron Institutional Animal Care and Use Committee (IACUC). Non-invasive ultrasound scanning was performed to determine pulmonary artery cross-sectional area (PA CSA), right ventricle cardiac output (RV CO) and right ventricular free wall thickness (RVFW) on the 21st day of hypoxia. Right ventricular diastolic and systolic pressures were acquired using a high-fidelity pressure catheter (Mikro-Tip®, Millar Instruments) in the right ventricle; in addition, right ventricular hypertrophy measurements (i.e., weight ratio of right ventricle-to-left ventricle+septum; Fulton Index) were measured at 21 days of hypoxia.

Assay [4] has the same test system. In words: Blocking/prevention of hypoxia-induced pulmonary hypertension (dosing prior to and during hypoxia). Conditions: 18th day of hypoxia. Here is the method:
Ultrasound measurements were acquired using the following protocol. Mice were anesthetized, placed in a supine position on a heated platform (THM 100, Indus Instruments) and 2D imaging of the pulmonary infundibulum (B- and M-mode) was carried out using a Vevo 2100 ultrasound system (VisualSonics). Images were obtained from the parasternal short-axis view at the level of the aortic valve. Pulsed-wave Doppler measurements were obtained at the tip of the pulmonary valve leaflets once the scanhead was aligned for maximal laminar flow. In addition, M-mode recordings of the right ventricle were acquired at the short axis B-mode imaging plane to obtain right ventricular free-wall dynamics through the cardiac cycle.
Ultrasound data analysis, performed in a blinded manner, analyzed the following parameters: Diastolic and systolic right ventricular free-wall thickness (RVFW, short axis M-mode), pulmonary artery diameter at end-systole (short axis B-mode), and pulmonary artery flow (PA flow, PW Doppler). From these measurements, time-velocity integral of pulmonary flow, pulmonary artery cross-sectional area (PA CSA), and right ventricle cardiac output (RV CO) were calculated. Means and standard errors of the mean were calculated for measurements at each time point, for each treatment group. All measurements were averaged on 3 cardiac cycles. Right ventricular pressures at 21 days of hypoxia were recorded using the following protocol: Mice were anesthetized, placed in the supine position on a heated platform (Water-jacketed pad heated with a Gaymar heating pump) and an incision over the right common carotid artery and right jugular vein was made isolating the right jugular taking care not to damage the carotid artery and/or the Vagus nerve. […]
Right ventricular systolic pressure analysis was conducted using LabChart Pro software (ADInstruments) at approximately 60 second intervals of pressure tracing (following a 2 minute period of recording to allow for pressure stabilization). The parameters analyzed were RV diastolic and systolic pressures, heart rate and animal temperature. […]

With `COc1ccccc1Oc1c(NS(=O)(=O)c2ccc(C(C)(C)C)cc2)nc(-c2ncccn2)nc1OCCO` [Bosentan, reference compound], in assay [1] (21 days post bleomycin, vs isotype control), the “lung wet weights (in words)” value is listed as “showed statistically significant reductions in wet lung weights”. In assay [1] (bleomycin 3.2 U/kg, 21 days post bleomycin), the “Wet Weight Rt. Lung (mg) AVG ± SEM” value came to 117 ± 6 mg. For the same compound, the “% Arterial Blood 02 Saturation AVG ± SEM” value in assay [1] (bleomycin 3.2 U/kg, MouseOx throat collar sensor) came to 93 ± 1%. Further, the “Total Collagen Rt. Lung (ug) AVG ± SEM” value in assay [1] (bleomycin 3.2 U/kg, Sircol soluble collagen, Day 21) was 403 ± 38 µg. Also, the “collagen accumulation in the lung (in words)” value in assay [1] (post bleomycin exposure) is listed as “reduced collagen accumulation in the lung”. The “arterial blood oxygen saturation (in words)” value in assay [2] is “tended to restore arterial blood oxygen saturation closer to baseline levels”. For the same compound, the “Pulmonary Artery Cross-Sectional Area (PA CSA)” value is “significantly reverse the reduction in pulmonary artery cross-sectional area” in assay [3]; “lessened lumen diameter loss” in assay [3] (listed as bosentan); “showed a similar yet reduced capacity to maintain basal PA CSA; also recorded: significantly lessen the reduction in PA CSA” in assay [4] (H4H6327P2 25 mg/kg SC every 3 days, Bosentan 300 mg/kg PO SID, FIG. 1). Further, the “Right Ventricular Free Wall (RVFW) Thickening” value in assay [3] is listed as “significantly reverse right ventricular free wall (RVFW) thickening”; in assay [3] (listed as bosentan) it was “attenuated right ventricular free wall (RVFW) thickening”. In assay [3] (FIG. 5), the “Distal Pulmonary Arteriole Wall Thickening” value is reported as “significantly reverses distal pulmonary arteriole wall thickening”. For the same compound, the “Right Ventricular Cardiac Output (RV CO)” value in assay [3] (FIG. 9) is “Greater preservation of RV CO in bosentan-treated vs antibody-treated animals”; in assay [4] (preventive dosing, FIG. 2) it was “showed a greater preservation of RV CO compared to the vehicle-treated group”. The “Right Ventricular Systolic Pressure (RVSP)” value in assay [3] (FIG. 10) was “tends to reduce the RVSP”. Moreover, in assay [4] (preventive dosing, FIG. 4), the “Right Ventricular Free Wall Thickness, systole (RVFW,s)” value is on record as “tends to reduce (not significant) the thickening of the RVFW”.
